Where two headings read alike, the source gives them in different places.
Experiments:
[1] = biological target: wild-type human cardiac sodium channel, hNaV 1.5 (Peak INa) (Homo sapiens, UniProt Q14524); assay: Peak INa screening assay (tonic block and use-dependent block); format: cell-based
Procedure, shortened: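 HEK293 cells stably expressing hNaV1.5 alpha subunit without beta subunits, whole-cell automated patch clamp. Compound at 1 or 3 μM added twice 60 s apart, then 200 s equilibration before tonic and use-dependent block voltage protocols. Block calculated versus compound-free condition with rundown correction; intracellular solution CsF/CsCl-based, pH 7.35.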

[2] = biological target: wild-type human cardiac sodium channel, hNaV 1.5 (Late INa) (Homo sapiens, UniProt Q14524); assay: Late INa screening assay (whole cell patch clamp, QPatch, Tefluthrin-induced late current); format: cell-based; details: HEK293, % inhibition (percent block of late INa) at 1 uM; HEK293 hNaV1.5; 10 μM Tefluthrin; read-out: Nav1.5 Late INa 1 uM
wild-type human cardiac sodium channel, hNaV 1.5 (Late INa), sequence (Q14524 whole entry): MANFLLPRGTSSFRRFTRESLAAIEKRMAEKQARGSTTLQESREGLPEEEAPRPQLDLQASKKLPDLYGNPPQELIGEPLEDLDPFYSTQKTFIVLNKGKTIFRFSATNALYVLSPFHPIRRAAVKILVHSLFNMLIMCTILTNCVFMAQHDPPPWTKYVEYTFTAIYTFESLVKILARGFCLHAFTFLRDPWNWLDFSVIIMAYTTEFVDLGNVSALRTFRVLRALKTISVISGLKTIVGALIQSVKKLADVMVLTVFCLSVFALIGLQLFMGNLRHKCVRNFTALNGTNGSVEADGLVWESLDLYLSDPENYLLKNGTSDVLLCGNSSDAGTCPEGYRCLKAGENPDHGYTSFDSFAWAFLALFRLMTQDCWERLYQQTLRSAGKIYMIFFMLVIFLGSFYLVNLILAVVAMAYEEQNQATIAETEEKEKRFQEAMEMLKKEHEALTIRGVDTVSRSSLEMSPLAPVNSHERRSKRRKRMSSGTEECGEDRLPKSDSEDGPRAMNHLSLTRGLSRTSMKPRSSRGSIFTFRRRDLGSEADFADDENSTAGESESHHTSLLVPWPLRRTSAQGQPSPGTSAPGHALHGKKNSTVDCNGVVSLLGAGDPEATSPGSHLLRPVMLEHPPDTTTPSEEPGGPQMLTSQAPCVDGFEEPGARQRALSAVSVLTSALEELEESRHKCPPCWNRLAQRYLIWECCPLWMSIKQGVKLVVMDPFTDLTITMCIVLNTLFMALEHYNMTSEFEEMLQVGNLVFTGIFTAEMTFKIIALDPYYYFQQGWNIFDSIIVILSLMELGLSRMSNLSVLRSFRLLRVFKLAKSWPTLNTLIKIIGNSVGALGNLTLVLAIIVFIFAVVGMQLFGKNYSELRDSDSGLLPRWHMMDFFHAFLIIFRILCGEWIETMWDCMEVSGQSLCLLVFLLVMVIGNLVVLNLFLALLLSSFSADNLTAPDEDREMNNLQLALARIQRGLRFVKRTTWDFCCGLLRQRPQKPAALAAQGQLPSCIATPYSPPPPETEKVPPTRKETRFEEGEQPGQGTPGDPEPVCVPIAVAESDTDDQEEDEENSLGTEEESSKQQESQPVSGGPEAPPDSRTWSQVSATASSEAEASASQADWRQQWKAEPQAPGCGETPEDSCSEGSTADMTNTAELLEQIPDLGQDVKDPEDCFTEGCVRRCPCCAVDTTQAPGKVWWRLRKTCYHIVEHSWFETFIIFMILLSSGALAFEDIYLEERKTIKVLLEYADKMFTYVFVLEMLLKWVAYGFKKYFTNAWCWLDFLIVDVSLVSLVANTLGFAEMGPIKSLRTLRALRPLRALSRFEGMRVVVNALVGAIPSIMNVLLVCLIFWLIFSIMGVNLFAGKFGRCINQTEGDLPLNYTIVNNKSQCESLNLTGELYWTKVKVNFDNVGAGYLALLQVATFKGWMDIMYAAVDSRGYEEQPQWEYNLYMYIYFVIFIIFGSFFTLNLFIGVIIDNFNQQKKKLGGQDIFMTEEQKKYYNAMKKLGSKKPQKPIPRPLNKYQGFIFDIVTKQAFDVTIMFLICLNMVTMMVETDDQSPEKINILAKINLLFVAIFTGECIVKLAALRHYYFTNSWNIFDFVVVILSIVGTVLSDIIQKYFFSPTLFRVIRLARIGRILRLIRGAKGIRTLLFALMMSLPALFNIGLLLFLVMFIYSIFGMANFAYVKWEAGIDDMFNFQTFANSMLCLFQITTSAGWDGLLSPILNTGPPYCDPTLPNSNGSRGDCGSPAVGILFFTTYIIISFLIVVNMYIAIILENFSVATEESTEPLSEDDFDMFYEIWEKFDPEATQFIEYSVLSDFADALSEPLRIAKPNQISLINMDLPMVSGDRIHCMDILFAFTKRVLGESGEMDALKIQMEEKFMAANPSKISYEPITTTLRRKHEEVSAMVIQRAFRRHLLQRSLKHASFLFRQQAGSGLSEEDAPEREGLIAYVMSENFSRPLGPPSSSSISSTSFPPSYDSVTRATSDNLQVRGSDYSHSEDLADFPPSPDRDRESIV
Procedure, shortened: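 HEK293 cells stably expressing hNaV1.5 without beta subunits, whole-cell patch clamp at 23-25° C; late current induced by 10 μM Tefluthrin, measured 240-265 ms into 250 ms steps to −20 mV from −120 mV at 0.1 Hz. Compounds typically 0.3 or 1 μM, three additions over 5 min; percent block normalized to 0Na baseline with rundown correction.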

[3] = % inhibition, use-dependent block of peak INa at 3 uM, 3 Hz, pulse 50, read-out: Nav1.5 Peak UDB 3 Hz 3 uM
[4] = read-out: Nav1.5 Peak TB 3 uM, % inhibition, tonic block of peak INa at 3 uM, 0.1 Hz, holding -100 mV

wild-type human cardiac sodium channel, hNaV 1.5 (Peak INa), sequence (Q14524 whole entry): as above

SMILES	inhibition at 3 µM [1, 3]	inhibition at 3 µM [1, 4]	inhibition at 1 µM [2]
COc1cc(OC(F)(F)F)ccc1-c1ccc2c(c1)CN(CCc1ncccn1)C(=O)O2 [Example 18, 6-(2-methoxy-4-(trifluoromethoxy)phenyl)-3-(2-(pyrimidin-2-yl)ethyl)-3,4-dihydro-2H-benzo[e][1,3]oxazin-2-one]	< 5%	12.1%	31.4%
Cc1cnc(CN2Cc3cc(-c4ccc(OC(F)(F)F)cc4F)ccc3OC2=O)nc1 [Example 14, 6-(2-fluoro-4-(trifluoromethoxy)phenyl)-3-((5-methylpyrimidin-2-yl)methyl)-3,4-dihydro-2H-benzo[e][1,3]oxazin-2-one]	< 5%	24%	39.3%
Cc1cc(-c2ccc3c(c2)CN(Cc2ncccn2)C(=O)O3)ccc1OC(F)(F)F [Example 5, 6-(3-methyl-4-(trifluoromethoxy)phenyl)-3-(pyrimidin-2-ylmethyl)-3,4-dihydro-2H-benzo[e][1,3]oxazin-2-one]	< 5%	10.1%	37.3%
COc1cc(C(F)(F)F)ccc1-c1ccc2c(c1)CN(Cc1ncccn1)C(=O)O2 [Example 34, 6-(2-methoxy-4-(trifluoromethyl)phenyl)-3-(pyrimidin-2-ylmethyl)-3,4-dihydro-2H-benzo[e][1,3]oxazin-2-one]	< 5%	27.7%	44.6%
CC(C)Oc1cc(C(F)(F)F)ccc1-c1ccc2c(c1)CN(Cc1ncccn1)C(=O)O2 [Example 25, 6-(2-isopropoxy-4-(trifluoromethyl)phenyl)-3-(pyrimidin-2-ylmethyl)-3,4-dihydro-2H-benzo[e][1,3]oxazin-2-one]	< 5%	29.7%	54%
